Holding throughout (format): cell-based
Experiment [1] has as its target T1, GDF-11 (Homo sapiens, UniProt O95390).
T1 construct: purchased R&D systems 1958-GD-G8/CF
T1 sequence (O95390 299-407): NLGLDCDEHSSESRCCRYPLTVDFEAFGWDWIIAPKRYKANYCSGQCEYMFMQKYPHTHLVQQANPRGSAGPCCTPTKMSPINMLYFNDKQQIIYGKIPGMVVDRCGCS
Briefly: Reporter gene assay for myostatin signaling in HepG2 cell line, Evaluation Procedure (1), GDF-11 inhibition. To be noted: Method A: GDF-11 10 ng/mL; read-out: IC50 (Luciferase) GDF-11 HepG2. The method, boiled down: (§1)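 IC50 derived from One-Glo luciferase luminescence after 20–24 h at 37 °C. Peptides titrated 4-fold at 0.006–100 nmol/L against myostatin or 0.12–2000 nmol/L against GDF-11 in HepG2 cells carrying a transfected CAGA12-luciferase reporter, kept in 0.1% BSA EMEM.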
In general terms: In a reporter assay the amount or activity of a reporter protein is the signal.

The target of experiment [2] is T2, Myostatin (Homo sapiens, UniProt O14793).
T2 construct: active myostatin (also called mature myostatin) is a homodimer consisting of two C-terminal growth factor domains; purchased R&D systems 788-G8/CF
T2 sequence (O14793 267-375): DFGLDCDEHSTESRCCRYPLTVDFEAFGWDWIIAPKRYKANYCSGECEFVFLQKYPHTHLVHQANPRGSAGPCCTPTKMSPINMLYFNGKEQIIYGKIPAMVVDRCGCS
In words: Reporter gene assay for myostatin signaling in HepG2 cell line, Evaluation Procedure (1), myostatin inhibition. The conditions noted are these: Method A: Myostatin 10 ng/mL; read-out: IC50 (Luciferase) Myostatin HepG2. The method, boiled down: as §1

The subject of experiment [3] is Myostatin. Described as above. The conditions noted are these: Method A; GDF-11 IC50 versus Myostatin IC50. A digest of the protocol:
as §1

pIC50: −log10 of the molar value. Starred links: 1 amine or outer side, 2 acyl side, 3 side chain; linkers in the order of their positions; H or OH if unused. Positions of bridges follow the written chain, without caps; N, C: chain ends. Non-standard residues stand in square brackets, D forms with d. Residues, ends and D or L forms follow the SMILES beside them. Phe(3-OCH2COOH) = N[C@@H](Cc1cccc(OCC(=O)O)c1)C(=O)O; Phe(4-COOH) = N[C@@H](Cc1ccc(C(=O)O)cc1)C(=O)O; Trp(7-aza) = N[C@@H](Cc1c[nH]c2ncccc12)C(=O)O; Bip = N[C@@H](Cc1ccc(-c2ccccc2)cc1)C(=O)O; Gly(N(CH2)3COOH) = O=C(O)CCCNCC(=O)O; X1 = CCCCCCC[C@H](N[*:1])C(=O)[*:2]; NMeF = CN[C@@H](Cc1ccccc1)C(=O)O; 4Pal = N[C@@H](Cc1ccncc1)C(=O)O; NMeA = CN[C@@H](C)C(=O)O; Sar = CNCC(=O)O

The term pIC50 denotes the IC50 on a negative log10 scale, so that one unit is a factor of ten. Take `CCCCCCC[C@@H]1NC(=O)[C@H](Cc2ccccc2)N(C)C(=O)[C@H](CCCNC(=N)N)NC(=O)[C@H](Cc2ccc(C(=O)O)cc2)NC(=O)[C@H](Cc2ccc(O)cc2)NC(=O)CN(C)C(=O)[C@H]([C@@H](C)CC)NC(=O)[C@H](Cc2ccccc2)N(C)C(=O)[C@H](Cc2ccc(O)cc2)NC(=O)[C@H](Cc2c[nH]c3ccccc23)NC(=O)[C@H](C)NC(=O)CN(CCCC(=O)O)C(=O)CSC[C@H](C(=O)O)NC(=O)[C@H](Cc2ccccc2)N(C)C(=O)[C@H](C)N(C)C1=O` [Myostatin_99_v167] ({CH2CO}-[Gly(N(CH2)3COOH)]AWY[NMeF]I[Sar]Y[Phe(4-COOH)]R[NMeF][X1][NMeA][NMeF][dC]-OH; thioether N-15): the pIC50 in experiment [1] is 6.67; in experiment [2], 8.35. Further, the Selectivity in experiment [3] is on record as 48.
For the compound `CCCCCCC[C@@H]1NC(=O)[C@H](Cc2ccccc2)N(C)C(=O)[C@H](CCCNC(=N)N)NC(=O)[C@H](Cc2ccc(C(=O)O)cc2)NC(=O)[C@H](Cc2ccc(O)cc2)NC(=O)CN(C)C(=O)[C@H]([C@@H](C)CC)NC(=O)[C@H](Cc2ccccc2)N(C)C(=O)[C@H](Cc2ccc(O)cc2)NC(=O)[C@H](Cc2c[nH]c3ncccc23)NC(=O)[C@H](C)NC(=O)CN(CCCC(=O)O)C(=O)CSC[C@H](C(=O)O)NC(=O)[C@H](Cc2ccccc2)N(C)C(=O)[C@H](C)N(C)C1=O` [Myostatin_99_v168] ({CH2CO}-[Gly(N(CH2)3COOH)]A[Trp(7-aza)]Y[NMeF]I[Sar]Y[Phe(4-COOH)]R[NMeF][X1][NMeA][NMeF][dC]-OH; thioether N-15), the pIC50 in experiment [1] was 6.92; in experiment [2] it was 8.68. The same compound registered a Selectivity in experiment [3] of 57.
As for `CCCCCCC[C@@H]1NC(=O)[C@H](Cc2ccccc2)N(C)C(=O)[C@H](CCCNC(=N)N)NC(=O)[C@H](Cc2ccc(C(=O)O)cc2)NC(=O)[C@H](Cc2ccncc2)NC(=O)CN(C)C(=O)[C@H]([C@@H](C)CC)NC(=O)[C@H](Cc2ccccc2)N(C)C(=O)[C@H](Cc2ccc(O)cc2)NC(=O)[C@H](Cc2c[nH]c3ccccc23)NC(=O)[C@H](C)NC(=O)CN(CCCC(=O)O)C(=O)CSC[C@H](C(=O)O)NC(=O)[C@H](Cc2ccccc2)N(C)C(=O)[C@H](C)N(C)C1=O` [Myostatin_99_v169] ({CH2CO}-[Gly(N(CH2)3COOH)]AWY[NMeF]I[Sar][4Pal][Phe(4-COOH)]R[NMeF][X1][NMeA][NMeF][dC]-OH; thioether N-15), the pIC50 in experiment [1] was 6.43; in experiment [2] it was 8.92. This compound also gave a Selectivity in experiment [3] of 310.
As for `CCCCCCC[C@@H]1NC(=O)[C@H](Cc2ccccc2)N(C)C(=O)[C@H](CCCNC(=N)N)NC(=O)[C@H](Cc2ccc(C(=O)O)cc2)NC(=O)[C@H](Cc2ccncc2)NC(=O)CN(C)C(=O)[C@H]([C@@H](C)CC)NC(=O)[C@H](Cc2ccccc2)N(C)C(=O)[C@H](Cc2ccc(O)cc2)NC(=O)[C@H](Cc2c[nH]c3ncccc23)NC(=O)[C@H](C)NC(=O)CN(CCCC(=O)O)C(=O)CSC[C@H](C(=O)O)NC(=O)[C@H](Cc2ccccc2)N(C)C(=O)[C@H](C)N(C)C1=O` [Myostatin_99_v170] ({CH2CO}-[Gly(N(CH2)3COOH)]A[Trp(7-aza)]Y[NMeF]I[Sar][4Pal][Phe(4-COOH)]R[NMeF][X1][NMeA][NMeF][dC]-OH; thioether N-15), the pIC50 was 6.67 in experiment [1] and 8.48 in experiment [2]. In experiment [3], this compound displayed a Selectivity of 65.
Taken in the same sequence, the figures for `CC[C@H](C)[C@@H]1NC(=O)[C@H](Cc2ccccc2)N(C)C(=O)[C@H](Cc2ccc(O)cc2)NC(=O)[C@H](Cc2c[nH]c3ccccc23)NC(=O)[C@H](CO)NC(=O)CN(CCCC(=O)O)C(=O)CSC[C@H](C(=O)O)NC(=O)[C@H](Cc2ccccc2)N(C)C(=O)[C@H](C)N(C)C(=O)[C@H](CC(C)C)NC(=O)[C@H](Cc2ccccc2)N(C)C(=O)[C@H](CCCNC(=N)N)NC(=O)[C@H](Cc2ccc(C(=O)O)cc2)NC(=O)[C@H](Cc2ccc(O)cc2)NC(=O)CN(C)C1=O` [Myostatin_99_v171] ({CH2CO}-[Gly(N(CH2)3COOH)]SWY[NMeF]I[Sar]Y[Phe(4-COOH)]R[NMeF]L[NMeA][NMeF][dC]-OH; thioether N-15) were 6.04, 7.35 and 20.
In the case of `CC[C@H](C)[C@@H]1NC(=O)[C@H](Cc2ccccc2)N(C)C(=O)[C@H](Cc2ccc(O)cc2)NC(=O)[C@H](Cc2c[nH]c3ccccc23)NC(=O)[C@H](C)NC(=O)[C@H](C)NC(=O)CSC[C@H](C(=O)O)NC(=O)[C@H](Cc2ccccc2)N(C)C(=O)[C@H](C)N(C)C(=O)[C@H](CC(C)C)NC(=O)[C@H](Cc2ccccc2)N(C)C(=O)[C@H](CCCNC(=N)N)NC(=O)[C@H](Cc2ccc(C(=O)O)cc2)NC(=O)[C@H](Cc2ccc(O)cc2)NC(=O)CN(C)C1=O` [Myostatin_99_v172] ({CH2CO}-AAWY[NMeF]I[Sar]Y[Phe(4-COOH)]R[NMeF]L[NMeA][NMeF][dC]-OH; thioether N-15), the pIC50 is 6.76 in experiment [1] and 8.29 in experiment [2]. The compound also came in with a Selectivity in experiment [3] of 34.
With `CCCCCCC[C@@H]1NC(=O)[C@H](Cc2ccccc2)N(C)C(=O)[C@H](CCCNC(=N)N)NC(=O)[C@H](Cc2ccc(C(=O)O)cc2)NC(=O)[C@H](Cc2ccc(O)cc2)NC(=O)CN(C)C(=O)[C@H]([C@@H](C)CC)NC(=O)[C@H](Cc2ccccc2)N(C)C(=O)[C@H](Cc2ccc(O)cc2)NC(=O)[C@H](Cc2c[nH]c3ccccc23)NC(=O)[C@H](CO)NC(=O)CN(CCCC(=O)O)C(=O)CSC[C@H](C(=O)O)NC(=O)[C@H](Cc2ccccc2)N(C)C(=O)[C@H](C)N(C)C1=O` [Myostatin_99_v173] ({CH2CO}-[Gly(N(CH2)3COOH)]SWY[NMeF]I[Sar]Y[Phe(4-COOH)]R[NMeF][X1][NMeA][NMeF][dC]-OH; thioether N-15), the pIC50 was 6.63 in experiment [1] and 8.26 in experiment [2]. This compound gave a Selectivity in experiment [3] of 42.
Taken in the same sequence, the figures for `CCCCCCC[C@@H]1NC(=O)[C@H](Cc2ccccc2)N(C)C(=O)[C@H](CCCNC(=N)N)NC(=O)[C@H](Cc2ccc(C(=O)O)cc2)NC(=O)[C@H](Cc2cccc(OCC(=O)O)c2)NC(=O)CN(C)C(=O)[C@H]([C@@H](C)CC)NC(=O)[C@H](Cc2ccccc2)N(C)C(=O)[C@H](Cc2ccc(O)cc2)NC(=O)[C@H](Cc2c[nH]c3ccccc23)NC(=O)[C@H](C)NC(=O)[C@H](C)NC(=O)CSC[C@H](C(=O)O)NC(=O)[C@H](Cc2ccccc2)N(C)C(=O)[C@H](C)N(C)C1=O` [Myostatin_99_v174] ({CH2CO}-AAWY[NMeF]I[Sar][Phe(3-OCH2COOH)][Phe(4-COOH)]R[NMeF][X1][NMeA][NMeF][dC]-OH; thioether N-15) were 6.65, 8.77 and 133.
Taken in the same sequence, the figures for `CC[C@H](C)[C@@H]1NC(=O)[C@H](Cc2ccccc2)N(C)C(=O)[C@H](Cc2ccc(O)cc2)NC(=O)[C@H](Cc2c[nH]c3ccccc23)NC(=O)[C@H](CO)NC(=O)[C@H](C)NC(=O)CSC[C@H](C(=O)O)NC(=O)[C@H](Cc2ccccc2)N(C)C(=O)[C@H](C)N(C)C(=O)[C@H](CC(C)C)NC(=O)[C@H](Cc2ccccc2)N(C)C(=O)[C@H](CCCNC(=N)N)NC(=O)[C@H](Cc2ccc(C(=O)O)cc2)NC(=O)[C@H](Cc2ccc(O)cc2)NC(=O)CN(C)C1=O` [Myostatin_99_v175] ({CH2CO}-ASWY[NMeF]I[Sar]Y[Phe(4-COOH)]R[NMeF]L[NMeA][NMeF][dC]-OH; thioether N-15) were 6.40, 7.79 and 24.
Take `CC[C@H](C)[C@@H]1NC(=O)[C@H](Cc2ccccc2)N(C)C(=O)[C@H](Cc2ccc(O)cc2)NC(=O)[C@H](Cc2ccc(-c3ccccc3)cc2)NC(=O)[C@H](C)NC(=O)CN(CCCC(=O)O)C(=O)CSC[C@H](C(=O)O)NC(=O)[C@H](Cc2ccccc2)N(C)C(=O)[C@H](C)N(C)C(=O)[C@H](CC(C)C)NC(=O)[C@H](Cc2ccccc2)N(C)C(=O)[C@H](CCCNC(=N)N)NC(=O)[C@H](Cc2ccc(C(=O)O)cc2)NC(=O)[C@H](Cc2ccc(O)cc2)NC(=O)CN(C)C1=O` [Myostatin_99_v176] ({CH2CO}-[Gly(N(CH2)3COOH)]A[Bip]Y[NMeF]I[Sar]Y[Phe(4-COOH)]R[NMeF]L[NMeA][NMeF][dC]-OH; thioether N-15): the pIC50 in experiment [1] was 6.42; in experiment [2], 7.76. The Selectivity in experiment [3] turned out to be 22.
Taken in the same sequence, the figures for `CC[C@H](C)[C@@H]1NC(=O)[C@H](Cc2ccccc2)N(C)C(=O)[C@H](Cc2ccc(O)cc2)NC(=O)[C@H](Cc2c[nH]c3ccccc23)NC(=O)[C@H](C)NC(=O)CN(CCCC(=O)O)C(=O)CSC[C@H](C(=O)O)NC(=O)[C@H](Cc2ccccc2)N(C)C(=O)[C@H](C)N(C)C(=O)[C@H](CC(C)C)NC(=O)[C@H](Cc2ccccc2)N(C)C(=O)[C@H](CCCNC(=N)N)NC(=O)[C@H](Cc2ccc(C(=O)O)cc2)NC(=O)[C@H](Cc2ccc(O)cc2)NC(=O)[C@H](C)N(C)C1=O` [Myostatin_99_v178] ({CH2CO}-[Gly(N(CH2)3COOH)]AWY[NMeF]I[NMeA]Y[Phe(4-COOH)]R[NMeF]L[NMeA][NMeF][dC]-OH; thioether N-15) were 6.60, 7.92 and 21.
